These results are taken from US20020155443A1, “Metal binding DNA interactive compounds” (priority 2000, published 2002).

In one data set the test system is Form I DNA. As to the kind of experiment: Cleavage of Form I DNA under mildly alkaline conditions. The data set is classed as biochemical. Particulars: mildly alkaline (pH 8.5) conditions. From the text: It is believed that the DNA damage due to 2.12 is insensitive to either the addition of radical scavengers or the exclusion of oxygen. Additionally, treatment of a methanolic solution of 2.12 with aqueous NaOH led to the production of the bis(enol ether) 2.13 as depicted in FIG. 4.

In data set [1] the test system is B16 murine melanoma cells. As to the kind of experiment: Growth inhibition of B16 murine melanoma cells, MTT assay. The data set is classed as cell-based. To be noted: Mus musculus, B16, read-out: IC50, growth inhibition. How it is done:
The growth inhibitory activities of bis(propargylic) sulfone crown ethers 2.47 and 2.48 against B16 murine melanoma cells were determined calorimetrically with an MTT assay conducted by the Institute for Drug Development at the Cancer Research and Therapy Center in San Antonio, Tex.
In general terms: Tetrazolium assays rely on reduction of a dye to a coloured formazan, in cell work by metabolically active cells.

In general, melting point refers to the temperature, or range, at which the solid turns liquid. One may read the IC50 as the midpoint of a concentration-inhibition curve.

With `O=S1(=O)CC#CCOc2ccccc2OCC#CC1` [Compound 2.10], the melting point lay within 176.5 to 177.5 °C.

`O=S1(=O)CC#CCOCCOCCOCCOCC#CC1` [Compound 2.12]: the “cleavage of Form I DNA” value with Form I DNA is reported as “dose-dependent cleavage”. As for `CCOC(=O)c1cccc(CS(=O)(=O)CC#CCO)c1` [Compound 3.3], the melting point lay within 79.5 to 80.5 °C. Take `C1#CCOCCOCCOCCOCCOCCOCC#C/C=C\1` [Compound 4.7]: the IC50 in data set [1] was determined as 68 µM.
